What was measured:
Test in all cases: Kinase activity inhibition assay (HTRF TK Kit), selectivity
Assay type in all cases: biochemical
[1] = target: T1, EGFR (Homo sapiens, UniProt P00533)
T1 construct: purchased Carna 08-115
From the text: (§1) In this assay, the HTRF TK Kit (Catalog No. 62TK0PEC) provided by Cisbio was used to detect the inhibitory activity of compounds on BTK kinase, BTK T474I kinase and BTK C481 S kinase and the selectivity of compounds relative to EGFR, ITK and TEC kinases.
(§2) Reagents and consumables: BTK kinase (Invitrogen, Catalog No. PV3587), BTK C481S (Carna, Product No. 08-547), BTK T474I(SignalChem Product No. B10-12HH), ITK (Cama, Product No. 08-181), EGFR (Cama, Product No. 08-115), TEC (Carna, Product No. 08-182), HTRF-TK kit (Cisbio, Product No. 62TK0PEC), MgCl2 (Sigma, Product No. M1028), MnCl2 (Sigma, Product No. M1787), DTT (Sigma, Product No. D0632), ATP (Sigma, Product No. A7699-1g), DMSO (Sigma, Product No. D2650), 384-well plate (PE, Product No. 6008280).
(§3) The entire operation steps were carried out on ice, and the total reaction volume was 10µL. A compound (4µL), substrate and ATP (4µL), and kinase (2µL) were added in sequence to a 384-well plate, and the plate was shaken for 30 seconds. The mixture was reacted at room temperature for an appropriate time, and then the detection reagent was added. The resulting mixture was reacted at room temperature for 1 hour, and then the plate was assayed with a microplate reader. The specific steps were as follows: • a) a 1 × kinase buffer solution required for the kinase assay was calculated according to the amount of the test compound, and prepared as needed; • b) 2.5 × working concentration of a compound was prepared, 100-fold gradient concentration solutions of a compound were diluted by 40 × to the desired concentration, respectively, mixed well, and added to each well at 4 µL per well; • c) 5 × working concentration of the substrate and ATP were prepared, mixed in a ratio of 1:1 before being added to the 384-well plate, and added to each well at 4 µL per well; • d) 5 × working concentration of a kinase was prepared, 2 µL of which was added to each well; • e) the plate was shaken on a microplate shaker for 30 seconds, sealed with a sealing membrane, and the mixture was reacted at room temperature for an appropriate time; • f) 4 × working concentration of streptavidin XL-665 and TK antibody-cryptate compound were prepared, mixed in a ratio of 1:1 before being added to the 384-well plate, and added to each well at 10 µL per well; • g) the mixture was reacted at room temperature for 1 hour, and then the plate was read; • h) the wells with only substrate, ATP and 1% DMSO added but no kinase were blank control wells, and the wells with only substrate, ATP, 1% DMSO and kinase were positive control wells.
(§4) Readings: The values of 620 nm (cryptate) and 665 nm (XL665) were read with a BioTek Synerg Neo2 microplate reader, the ratio of 665/620 for each well was calculated, and the data were exported.
(§5) Data analysis: IC50 was calculated using GraphPad Prism 7.0 software.
(§6) The IC50 (half-maximal inhibitory concentration) of the compound was obtained using the following nonlinear fitting formula: Y = Bottom + (Top−Bottom)/(1+10^(∧)((LogIC50−X)*HillSlope)) [formula] • X: Log value of the compound concentration • Y: Inhibition rate (% inhibition) • Top: Maximum response • Bottom: Baseline response • HillSlope: Slope of the curve
(§7) The formula for calculating kinase inhibition rate (inhibition rate %) was: [formula]

[2] = target: T2, ITK (Homo sapiens, UniProt Q08881)
T2 construct: purchased Carna 08-181
T2 sequence (Q08881 1-620): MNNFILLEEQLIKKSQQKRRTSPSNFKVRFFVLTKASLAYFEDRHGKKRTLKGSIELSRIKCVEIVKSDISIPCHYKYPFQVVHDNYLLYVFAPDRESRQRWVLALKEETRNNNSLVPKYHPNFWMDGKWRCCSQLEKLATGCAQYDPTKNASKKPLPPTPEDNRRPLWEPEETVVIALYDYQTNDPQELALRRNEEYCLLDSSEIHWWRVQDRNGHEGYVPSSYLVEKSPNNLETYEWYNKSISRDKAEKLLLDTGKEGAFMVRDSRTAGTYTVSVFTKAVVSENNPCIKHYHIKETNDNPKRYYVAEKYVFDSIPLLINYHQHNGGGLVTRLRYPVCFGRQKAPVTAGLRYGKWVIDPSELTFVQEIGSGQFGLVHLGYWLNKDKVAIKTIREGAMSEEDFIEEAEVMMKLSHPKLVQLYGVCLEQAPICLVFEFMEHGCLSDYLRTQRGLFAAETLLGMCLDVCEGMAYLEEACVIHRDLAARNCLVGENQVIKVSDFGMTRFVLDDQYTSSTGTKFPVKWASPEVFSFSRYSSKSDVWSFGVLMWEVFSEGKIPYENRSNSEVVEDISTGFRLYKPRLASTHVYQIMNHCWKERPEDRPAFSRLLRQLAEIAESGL
From the text: as §1, §2, §3, §4, §5, §6, §7

[3] = target: T3, TEC (Homo sapiens, UniProt P42680)
T3 construct: purchased Carna 08-182
T3 sequence (P42680 1-631): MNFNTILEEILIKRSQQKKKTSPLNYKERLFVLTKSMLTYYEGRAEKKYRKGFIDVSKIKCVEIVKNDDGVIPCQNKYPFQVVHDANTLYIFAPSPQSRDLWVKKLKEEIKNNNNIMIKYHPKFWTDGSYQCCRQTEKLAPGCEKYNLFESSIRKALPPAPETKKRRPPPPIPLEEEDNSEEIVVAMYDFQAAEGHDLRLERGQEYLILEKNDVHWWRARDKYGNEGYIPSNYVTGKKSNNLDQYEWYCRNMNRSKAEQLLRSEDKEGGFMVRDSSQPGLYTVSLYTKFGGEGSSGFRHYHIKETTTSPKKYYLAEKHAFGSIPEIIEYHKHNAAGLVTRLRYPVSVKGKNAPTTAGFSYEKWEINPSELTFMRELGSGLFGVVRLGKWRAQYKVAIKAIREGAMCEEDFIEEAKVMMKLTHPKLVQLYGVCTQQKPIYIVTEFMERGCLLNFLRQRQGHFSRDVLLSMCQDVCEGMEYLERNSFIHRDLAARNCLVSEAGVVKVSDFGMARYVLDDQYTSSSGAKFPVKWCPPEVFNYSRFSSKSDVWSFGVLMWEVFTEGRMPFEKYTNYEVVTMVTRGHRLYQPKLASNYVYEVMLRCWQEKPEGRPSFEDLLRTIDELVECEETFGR
From the text: as §1, §2, §3, §4, §5, §6, §7

T1 sequence (P00533 669-1210 limits assumed): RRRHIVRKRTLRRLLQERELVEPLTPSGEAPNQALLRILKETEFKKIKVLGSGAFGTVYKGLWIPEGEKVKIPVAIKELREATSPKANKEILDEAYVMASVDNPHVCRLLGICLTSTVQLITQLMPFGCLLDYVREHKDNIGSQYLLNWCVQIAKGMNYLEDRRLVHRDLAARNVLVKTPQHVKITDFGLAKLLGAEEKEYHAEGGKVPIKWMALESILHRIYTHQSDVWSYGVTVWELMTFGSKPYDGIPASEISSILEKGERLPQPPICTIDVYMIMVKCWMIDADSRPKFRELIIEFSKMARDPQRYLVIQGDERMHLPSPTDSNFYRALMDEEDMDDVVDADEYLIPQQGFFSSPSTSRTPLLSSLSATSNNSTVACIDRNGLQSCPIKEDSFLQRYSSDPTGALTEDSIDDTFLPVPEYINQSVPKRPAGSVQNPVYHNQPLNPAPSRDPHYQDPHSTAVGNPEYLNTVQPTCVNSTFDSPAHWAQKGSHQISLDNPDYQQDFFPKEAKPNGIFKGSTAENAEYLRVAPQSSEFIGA

Row | IC50 [1] [nM] | IC50 [2] [nM] | IC50 [3] [nM] | Compound
1 | 50 to 500 | > 500 | > 500 | COc1ccc(F)cc1C(=O)NCc1ccc(-c2nc(C(C)C(F)(F)F)cc3[nH]nc(N)c23)cc1 (stereo not drawn) [Example 1, N-(4-(3-amino-6-(1,1,1-trifluoropropan-2-yl)-1H-pyrazolo[4,3-c]pyridin-4-yl)benzyl)-5-fluoro-2-methoxybenzamide]
2 | > 500 | > 500 | > 500 | COc1ccc(F)cc1C(=O)NCc1ccc(-c2nc(C)c(-c3ncccn3)c3[nH]nc(N)c23)cc1 [Example 84, N-(4-(3-amino-6-methyl-7-(pyrimidin-2-yl)-1H-pyrazolo[4,3-c]pyridin-4-yl)benzyl)-5-fluoro-2-methoxybenzamide]
3 | 50 to 500 | > 500 | 5 to 50 | COc1ccc(F)cc1C(=O)NCc1ccc(-c2ncc(-c3ccn(C)n3)c3[nH]nc(N)c23)cc1 [Example 23, N-(4-(3-amino-7-(1-methyl-1H-pyrazol-3-yl)-1H-pyrazolo[4,3-c]pyridin-4-yl)benzyl)-5-fluoro-2-methoxybenzamide]
4 | 50 to 500 | > 500 | 5 to 50 | COc1ccc(F)cc1C(=O)NCc1ccc(-c2ncc(-c3ccccn3)c3[nH]nc(N)c23)cc1 [Example 15, N-(4-(3-amino-7-(pyridin-2-yl)-1H-pyrazolo[4,3-c]pyridin-4-yl)benzyl)-5-fluoro-2-methoxybenzamide]
5 | 5 to 50 | 50 to 500 | 50 to 500 | COc1ccc(F)cc1C(=O)NCc1ccc(-c2ncc(-c3ccc(OCCN4CCCC4)cn3)c3[nH]nc(N)c23)cc1 [Example 62, N-(4-(3-amino-7-(5-(2-(pyrrolidin-1-yl)ethoxy)pyridin-2-yl)-1H-pyrazolo[4,3-c]pyridin-4-yl)benzyl)-5-fluoro-2-methoxybenzamide]
6 | 50 to 500 | > 500 | 5 to 50 | COc1ccc(F)cc1C(=O)NCc1ccc(-c2ncc(-c3cnn4cccnc34)c3[nH]nc(N)c23)cc1 [Example 70, N-(4-(3-amino-7-(pyrazolo[1,5-a]pyrimidin-3-yl)-1H-pyrazolo[4,3-c]pyridin-4-yl)benzyl)-5-fluoro-2-methoxybenzamide]
7 | 50 to 500 | > 500 | 5 to 50 | COc1ccc(F)cc1C(=O)NCc1ccc(-c2ncc(-c3cn4ccnc4cn3)c3[nH]nc(N)c23)cc1 [Example 50, N-(4-(3-amino-7-(imidazo[1,2-a]pyrazin-6-yl)-1H-pyrazolo[4,3-c]pyridin-4-yl)benzyl)-5-fluoro-2-methoxybenzamide]
8 | 5 to 50 | 50 to 500 | 1 to 5 | COc1ccc(F)cc1C(=O)NCc1ccc(-c2ncc(-c3cc4ccccn4n3)c3[nH]nc(N)c23)cc1 [Example 69, N-(4-(3-amino-7-(pyrazolo[1,5-a]pyridin-2-yl)-1H-pyrazolo[4,3-c]pyridin-4-yl)benzyl)-5-fluoro-2-methoxybenzamide]
9 | > 500 | > 500 | 50 to 500 | COc1ccc(F)cc1C(=O)NCc1ccc(-c2nc(C(C)C(F)(F)F)cc3[nH]nc(N)c23)cc1 (single isomer, unassigned) [Example 3, N-(4-(3-amino-6-(1,1,1-trifluoropropan-2-yl)-1H-pyrazolo[4,3-c]pyridin-4-yl)benzyl)-5-fluoro-2-methoxybenzamide]
10 | 5 to 50 | 50 to 500 | 5 to 50 | COc1ccc(F)cc1C(=O)NCc1ccc(-c2ncc(-c3ccc(N4CCN(C)CC4)cn3)c3[nH]nc(N)c23)cc1 [Example 73, N-(4-(3-amino-7-(5-(4-methylpiperazin-1-yl)pyridin-2-yl)-1H-pyrazolo[4,3-c]pyridin-4-yl)benzyl)-5-fluoro-2-methoxybenzamide]
11 | > 500 | > 500 | 50 to 500 | COc1ccc(F)cc1C(=O)NCc1ccc(-c2ncc(-c3ccc(C(F)(F)F)cn3)c3[nH]nc(N)c23)cc1 [Example 24, N-(4-(3-amino-7-(5-(trifluoromethyl)pyridin-2-yl)-1H-pyrazolo[4,3-c]pyridin-4-yl)benzyl)-5-fluoro-2-methoxybenzamide]
12 | > 500 | > 500 | 50 to 500 | COc1ccc(F)cc1C(=O)NCc1ccc(-c2ncc(-c3ccncn3)c3[nH]nc(N)c23)cc1 [Example 19]
13 | 50 to 500 | > 500 | 5 to 50 | COc1ccc(F)cc1C(=O)NCc1ccc(-c2nc(C(C)C(F)(F)F)c(-c3ccn(C)n3)c3[nH]nc(N)c23)cc1 (stereo not drawn) [Example 6, N-(4-(3-amino-7-(1-methyl-1H-pyrazol-3-yl)-6-(1,1,1-trifluoropropan-2-yl)-1H-pyrazolo[4,3-c]pyridin-4-yl)benzyl)-5-fluoro-2-methoxybenzamide]
14 | 50 to 500 | 50 to 500 | 5 to 50 | COc1ccc(F)cc1C(=O)NCc1ccc(-c2ncc(-c3ccc(C(=O)N4CCOCC4)cn3)c3[nH]nc(N)c23)cc1 [Example 52, N-(4-(3-amino-7-(5-(morpholine-4-carbonyl)pyridin-2-yl)-1H-pyrazolo[4,3-c]pyridin-4-yl)benzyl)-5-fluoro-2-methoxybenzamide]
15 | 50 to 500 | > 500 | 50 to 500 | COc1ccc(F)cc1C(=O)NCc1ccc(-c2ncc(-c3cc[nH]n3)c3[nH]nc(N)c23)cc1 [Example 31, N-(4-(3-amino-7-(1H-pyrazol-3-yl)-1H-pyrazolo[4,3-c]pyridin-4-yl)benzyl)-5-fluoro-2-methoxybenzamide]
16 | > 500 | > 500 | 5 to 50 | COc1ccc(F)cc1C(=O)NCc1ccc(-c2nc(C(C)C(F)(F)F)c(-c3ncccn3)c3[nH]nc(N)c23)cc1 (single isomer, unassigned) [Example 7-1, N-(4-(3-amino-7-(pyrimidin-2-yl)-6-(1,1,1-trifluoropropan-2-yl)-1H-pyrazolo[4,3-c]pyridin-4-yl)benzyl)-5-fluoro-2-methoxybenzamide]

Source: patent EP4741392A1, “1H-PYRAZOLO[4,3-C]PYRIDINE COMPOUND, AND COMPOSITION THEREOF AND USE THEREOF” (Shenzhen TargetRx Co., Ltd., priority 2023, dated 2025)
